Here are results for three molecules from US20260232726A1, “USE OF BORON FOR THE TREATMENT OF LEISHMANIASIS DISEASE OF NEURONAL ORIGIN” (YEDITEPE UNIVERSITESI, priority 2023, published 2026).

One series concerns leishmaniasis. The settings on record: cited from earlier work.
Series [1] has as its system GSH level in astrocytes infected with Leishmania. Briefly: Oxidative stress by measurement of glutathione (GSH) level in infected astrocytes (DTNB). Type of series: cell-based, murine. The conditions noted are these: 50, 100, 150 and 200 μM SPT; 24 hours. The method, then:
6. Determining the Oxidative Stress by Measurement of Glutathione (GSH) Level in Astrocytes Infected with Leishmania
To determine the GSH level of infected astrocytes, cell lysate (50 ul) is suspended in DTNB (Ellman's reagent—5,5′-Dithiobis(2-nitrobenzoic acid)) (10 uL). Then, EDTA buffer solution (pH 8.2) is added to this mixture in a 96-well plate. After incubation in the dark at 37° C. for 30 minutes, absorbance is measured colorimetrically at a wavelength of 412 nm using a UV spectrophotometer (Thermo Scientific, Finland). The results are expressed as μmol/g protein.

The subject of series [2] is healthy C8-S astrocyte cells. Briefly: Cell viability of healthy astrocytes treated with SPT (MTS method). Format: cell-based, murine. The method, then: (§1) Astrocyte C8-S murine cell line (ATCC) is grown as monolayer in RPMI 1640 nutrient medium (2 mM L-glutamine, 100 U/ml penicillin, 100 μg/ml streptomycin) with 10% FBS, heat inactivated in a humidified atmosphere environment with 5% C02 at 37° C. Cells are passaged at 3-day intervals.
3. Treating Astrocytes with SPT and Determining Cell Viability
Cells were seeded in 96-well culture dishes (Coming Glasswork, Coming, NY) in Dulbecco's modified Eagle's medium (DMEM) containing 10% fetal bovine serum (lnvitrogen) and 1% PSA (Biological Industries, Beit Haemek, Israel) at 8.000 cells/well and then treated with SPT, and cell viability levels were measured on days 1, 2 and 3. Cell viability is measured by using 3-(4,5-di-methyl-thiazol-2-yl)-5-(3-carboxy-methoxy-phenyl)-2-(4-sulfo-phenyl)-2H-tetrazolium (MTS)-method (CellTiter96 AqueousOne Solution; Promega, Southampton, UK). 10 μl MTS solution is added onto the cells in 100 μl growth medium and they are incubated in the dark for 2 hours. After the incubation period, viability analysis is obtained by performing absorbance measurement with an ELISA plate reader (Biotek, Winooski, VT) at 490 nm wavelength.

Series [3] relates to C8-S astrocyte cells infected with L. infantum parasites. Briefly: Infection rate of astrocytes infected with parasites after SPT treatment (flow cytometer). Format: cell-based, Leishmania infantum. The method, then: Leishmania infimtum (MHOM/MA/67/TTMA-P263) promastigotes are incubated in RPMI medium (heat inactivated 1 0/4) fetal bovine serum, 2 mM L-glutamine, 20 mM HEPES, 100 U/ml penicillin, 100 μg/ml streptomycin) at 27° C. Parasites reaching the logarithmic phase (10^6/ml) are made infective.
as §1
C8-S astrocytes and L. infantum promastigotes were stained with PKH26 (Red Fluorescent Cell Linker Kit, Sigma-Aldrich) and PKH67 (Green Fluorescent Cell Linker Kit, Sigma-Aldrich), respectively, according to the procedure described previously in the article by Islek et al. (2021). A total cell concentration of 10^7 cells/ml was used. Before infection, the staining rate of parasites and cells was determined by flow cytometry.
5. Treating the Infected Astrocytes with SPT
The effect of SPT on the proliferation of astrocyte cells infected with parasites is analyzed. In summary, astrocytes are infected with parasites at 37° cat a ratio of 10:1 (parasite: astrocyte). After 3 and a half hours, infected astrocytes are washed with medium to remove the remaining parasites. Infected astrocytes are left to incubate with SPT at different concentration ranges for 3 days at 37° C., fixed at the end of 3 days and the infection rate is determined by flow cytometer. The percentage of infection is determined according to the following formula: […]
For orientation: A flow cytometer gives signals particle by particle.

Setting [4] is: SPT 50-400 μM, 24, 48 and 72 hours.

Like-named read-outs stand apart in the source and are kept apart here.

`CCCCCCCCCCCCCCCCOP(=O)([O-])OCC[N+](C)(C)C` [Miltefosine]: the cure in the series with leishmaniasis (miltefosine data compared with 6-month Amphotericin B therapy) is on record as 94%; in the series on leishmaniasis (oral, 3-4-week treatment), 95-100%.
On to `C[C@@H]1[C@H](O)[C@@H](C)/C=C/C=C/C=C/C=C/C=C/C=C/C=C/[C@H](O[C@@H]2O[C@H](C)[C@@H](O)[C@H](N)[C@@H]2O)C[C@@H]2O[C@](O)(C[C@@H](O)C[C@@H](O)[C@H](O)CC[C@@H](O)C[C@@H](O)CC(=O)O[C@H]1C)C[C@H](O)[C@H]2C(=O)O` [Amphotericin B], for which the cure in the series on leishmaniasis (6-month therapy) is 97%. In the series with leishmaniasis (cases where antimonial resistance is observed), the cure rate was ~100%.
Consider `O.O.O.O.[Na+].[O-]B1OO1` [SPT, sodium perborate tetrahydrate], for which the “GSH levels in infected astrocytes compared to the negative control” value in series [1] was “significantly inducing GSH levels”. Also, in series [2] (100 μM SPT, after 72 hours), the “astrocyte cell viability compared to the negative control group” value was 100%. Besides, the “cell viability of healthy C8-S astrocytes” value in series [2] (200 μM SPT, 24, 48 and 72 hours) is reported as “above 100%”. Further, the “toxic effect on healthy cells” value in series [2] (setting [4]) is given as “showed no toxic effect on healthy cells”. Besides, the “infection rate of infected astrocytes” value was 20±3.33% in series [3] (75 μM SPT, 24 hours, negative control approximately 23%); “approximately 4%” in series [3] (75 μM SPT, 72 hours, negative control 13%); 17±2.86% in series [3] (100 μM SPT, 24 hours, negative control approximately 23%); 11.89±3.56% in series [3] (150 μM SPT, 24 hours, negative control approximately 23%); 7.97±1.51% in series [3] (200 μM SPT, 24 hours, negative control approximately 23%); 12.63±1.78% in series [3] (400 μM SPT, 24 hours, negative control approximately 23%). Moreover, in series [3] (100, 150, 200, and 400 μM SPT, 72 hours, negative control 13%), the “infection rate of infected astrocytes” value is given as ~7%. Also, the “cell viability on astrocytes infected with Leishmania infantum promastigotes” value in series [3] (setting [4]) was “statistically decreased cell viability”. Also, in series [3] (SPT 75-200 μM), the “effect on cells infected with L. infantum parasites” value was “significant reduction”.
